The source of these data is ChEMBL document CHEMBL5537206 (J Med Chem, 2024).

Where only a bound is given, the exact number is not on record here.

Common to all, as to assay type: functional, cell-based
Assay [1] concerns Osimertinib-resistant NCI-H1975 cell. Put plainly: Antiproliferative activity against human Osimertinib-resistant NCI-H1975 cell (AZDR) incubated for 72 hrs by MTT assay.
Assay [2] deals with NCI-H1975. Put plainly: Antiproliferative activity against human NCI-H1975 cells incubated for 72 hrs by MTT assay. The settings on record: NCI-H1975, 72 h.
Assay [3] has as its system MCF7. Put plainly: Antiproliferative activity against human MCF7 cells incubated for 72 hrs by MTT assay. The settings on record: MCF7, 72 h.

Turning to `C=CC(=O)Nc1cccc(Nc2nc(Nc3cnn(C)c3)nc3cc(C)ccc23)c1`, the IC50 in assay [1] worked out at 3.34 µM; in assay [2], 1.59 µM; in assay [3] it was 0.52 µM.
On to `C=CC(=O)Nc1cccc(Nc2nc(Nc3cnn(CCN4CCOCC4)c3)nc3ccc(Cl)cc23)c1`, for which the IC50 in assay [1] came out at 3.45 µM; in assay [2], 1.7 µM; in assay [3] it was 8.78 µM.
For `C=CC(=O)Nc1cccc(Nc2nc(Nc3cnn(CC(F)(F)F)c3)nc3ccc(Cl)cc23)c1` the same measures were 3.55 µM, 2.15 µM and 6.83 µM.
The like results for `C=CC(=O)Nc1cccc(Nc2nc(Nc3cnn(C)c3)nc3ccc(C)cc23)c1` were, in that order, 2.51 µM, 1.86 µM and 1.24 µM.
The like results for `C=CC(=O)Nc1cccc(Nc2nc(Nc3cnn(C)c3)nc3cccc(F)c23)c1` were, in that order, 3.44 µM, 1.06 µM and 9.16 µM.
`C=CC(=O)Nc1cccc(Nc2nc(Nc3cn(C)nc3C(F)(F)F)nc3ccc(Cl)cc23)c1`: the IC50 was 3.36 µM in assay [1], 1.02 µM in assay [2] and 5.72 µM in assay [3].
As for `C=CC(=O)Nc1cccc(Nc2nc(NCCn3cccn3)nc3ccc(Cl)cc23)c1`, the IC50 in assay [1] stood at 22.8 µM; in assay [2], 10.1 µM; in assay [3], 13.7 µM.
Regarding `C=CC(=O)Nc1cccc(Nc2nc(Nc3cnn(-c4ccccc4)c3)nc3ccc(Cl)cc23)c1`, the IC50 in assay [1] turned out to be 8.13 µM; in assay [2] it was 10.1 µM; in assay [3], 15.2 µM.
The like results for `C=CC(=O)Nc1cccc(Nc2nc(Nc3cnn(C4CCOCC4)c3)nc3ccc(Cl)cc23)c1` were, in that order, 3.72 µM, 1.4 µM and 2.91 µM.
The like results for `C=CC(=O)Nc1cccc(Nc2nc(Nc3cnn(C)c3)nc3ccc(I)cc23)c1` were, in that order, 0.98 µM, 0.75 µM and 1.84 µM.
For `C=CC(=O)Nc1cccc(Nc2nc(Nc3cn(CC)nc3C)nc3ccc(Cl)cc23)c1` the same measures were 2.14 µM, > 20 µM and 10.8 µM.
Turning to `C=CC(=O)Nc1cccc(Nc2nc(Nc3cnn(C)c3)nc3ccc(F)cc23)c1`, the IC50 is 1.52 µM in assay [1], 8.76 µM in assay [2] and 2.36 µM in assay [3].
For `CCC(=O)Nc1cccc(Nc2nc(Nc3cnn(C)c3)nc3ccc(Cl)cc23)c1` the same measures were 9.58 µM, 6.35 µM and 4.68 µM.
The like results for `C=CC(=O)Nc1cccc(Nc2nc(Nc3cnn(C(C)(C)C)c3)nc3ccc(Cl)cc23)c1` were, in that order, 3.94 µM, 2.1 µM and 5.64 µM.
For `C=CC(=O)Nc1cccc(Nc2nc(Nc3ccc(N(C)CCN(C)C)cc3)nc3ccc(Cl)cc23)c1` the same measures were 1.89 µM, 1.24 µM and 2.53 µM.
`C=CC(=O)Nc1cccc(Nc2nc(Nc3cnn(C)c3)nc3ccc(Br)cc23)c1`: the IC50 in assay [1] is 2.35 µM; in assay [2], 1.1 µM; in assay [3], 1.64 µM.
With `C=CC(=O)Nc1cccc(Nc2nc(Nc3cnn(C)c3)nc3c(F)cccc23)c1`, the IC50 in assay [1] was determined as 3.34 µM; in assay [2], 2.11 µM; in assay [3], 3.74 µM.
For `C=CC(=O)Nc1cccc(Nc2nc(Nc3cnn(C)c3)nc3ccc(C(F)(F)F)cc23)c1` the same measures were 2.75 µM, 1.56 µM and 18.2 µM.
With `C=CC(=O)Nc1cccc(Nc2nc(Nc3cccc(Br)c3)nc3ccc(Cl)cc23)c1`, the IC50 turned out to be 2.8 µM in assay [1], 2.94 µM in assay [2] and 3.58 µM in assay [3].
As for `C=CC(=O)Nc1ccc(Nc2nc(Nc3cnn(C)c3)nc3ccc(Cl)cc23)cc1`, the figures for the IC50 in assay [1], in assay [2] and in assay [3] were 7.35 µM, 7.58 µM and 3.58 µM, respectively.
With `C=CC(=O)Nc1cccc(Nc2nc(Nc3ccc(C)cc3)nc3ccc(Cl)cc23)c1`, the IC50 in assay [1] was 6.56 µM; in assay [2] it was 2.29 µM; in assay [3] it was 4.24 µM.
For `C=CC(=O)Nc1cccc(Nc2nc(Nc3cnn(C)c3)nc3ccccc23)c1` the same measures were 2.81 µM, 0.94 µM and 4.6 µM.
`C=CC(=O)Nc1cccc(Nc2nc(Nc3cnn(C4CCN(C)CC4)c3)nc3ccc(Cl)cc23)c1`: the IC50 in assay [1] was determined as 4.53 µM; in assay [2] it was 2.35 µM; in assay [3] it was 5.26 µM.
The like results for `C=CC(=O)Nc1cccc(Nc2nc(Nc3cnn(C)c3)nc3c(Cl)cccc23)c1` were, in that order, > 20 µM, 2.21 µM and 1.72 µM.
With `C=CC(=O)Nc1ccccc1Nc1nc(Nc2cnn(C)c2)nc2ccc(Cl)cc12`, the results for the IC50 in assay [1], in assay [2] and in assay [3] were 6.53 µM, 5.63 µM and 4.26 µM, respectively.
The like results for `C=CC(=O)Nc1cccc(Nc2nc(Nc3cnn(C)c3)nc3cccc(Cl)c23)c1` were, in that order, 2.44 µM, 0.81 µM and 1.85 µM.
Take `C=CC(=O)Nc1cccc(Nc2nc(Nc3ccnn3C)nc3ccc(Cl)cc23)c1`: the IC50 was found to be 9.47 µM in assay [1], 4.25 µM in assay [2] and 6.89 µM in assay [3].
For `C=CC(=O)Nc1cccc(Nc2nc(Nc3cccc(C)c3)nc3ccc(Cl)cc23)c1` the same measures were 4.77 µM, 2.68 µM and 7.73 µM.
The like results for `C=CC(=O)Nc1cccc(Nc2nc(Nc3cnn(C)c3)nc3ccc(OC)cc23)c1` were, in that order, 4.64 µM, 1.52 µM and 2.2 µM.
For `C=CC(=O)Nc1cccc(Nc2nc(Nc3cnn(C)c3)nc3cc(C(F)(F)F)ccc23)c1` the same measures were 2.62 µM, 1.3 µM and 1.16 µM.
On to `C=CC(=O)Nc1cccc(Nc2nc(Nc3c(C)nn(C)c3C)nc3ccc(Cl)cc23)c1`, for which the IC50 was 1.62 µM in assay [1], 2.89 µM in assay [2] and 4.4 µM in assay [3].
For `C=CC(=O)Nc1cccc(Nc2nc(Nc3cnn(Cc4ccccc4)c3)nc3ccc(Cl)cc23)c1` the same measures were 3.83 µM, 3.98 µM and 1.3 µM.
Turning to `C=CC(=O)Nc1cccc(Nc2nc(Nc3cnn(C)c3)nc3cc(OC)ccc23)c1`, the results for the IC50 in assay [1], in assay [2] and in assay [3] were 2.5 µM, 1.38 µM and 1.34 µM, respectively.
Take `C=CC(=O)Nc1cccc(Nc2nc(Nc3cn[nH]c3)nc3ccc(Cl)cc23)c1`: the IC50 was 4.68 µM in assay [1], 2.56 µM in assay [2] and 5.37 µM in assay [3].
The like results for `C=CC(=O)Nc1cccc(Nc2nc(Nc3cn(C)nc3C)nc3ccc(Cl)cc23)c1` were, in that order, > 20 µM, 4.05 µM and 15 µM.
The like results for `C=CC(=O)Nc1cccc(Nc2nc(Nc3ccn(C)n3)nc3ccc(Cl)cc23)c1` were, in that order, 3.55 µM, 1.37 µM and 12.4 µM.
For `C=CC(=O)Nc1cccc(Nc2nc(Nc3cc(C(F)(F)F)n(C)n3)nc3ccc(Cl)cc23)c1` the same measures were 3.45 µM, 2.36 µM and 10 µM.
For `C=CC(=O)Nc1cccc(Nc2nc(Nc3cnn(C)c3)nc3cc(F)ccc23)c1`, the results for the IC50 in assay [1], in assay [2] and in assay [3] were 17.7 µM, 1.28 µM and 11.1 µM, respectively.
The like results for `C=CC(=O)Nc1cccc(Nc2nc(Nc3cnn(C)c3)nc3cc(Cl)ccc23)c1` were, in that order, 13.8 µM, 15 µM and 2.95 µM.
As to `C=CC(=O)Nc1cccc(Nc2nc(Nc3cnn(C)c3)nc3ccc(Cl)cc23)c1`, the IC50 amounted to 1.04 µM in assay [1], 0.95 µM in assay [2] and 1.23 µM in assay [3].
Take `C=CC(=O)Nc1cccc(Nc2nc(Nc3ccc(-n4cccn4)cc3)nc3ccc(Cl)cc23)c1`: the 50% inhibitory concentration (IC50) turned out to be 5.84 µM in assay [1], 1.51 µM in assay [2] and 4.78 µM in assay [3].
With `C=CC(=O)Nc1cccc(Nc2nc(Nc3cnn(CCOC)c3)nc3ccc(Cl)cc23)c1`, the concentration for half-maximal inhibition (IC50) in assay [1] was 3.71 µM; in assay [2], 3.18 µM; in assay [3], 6.56 µM.
Take `C=CC(=O)Nc1cccc(Nc2nc(Nc3cnn(C)c3C)nc3ccc(Cl)cc23)c1`: the values for the IC50 in assay [1], in assay [2] and in assay [3] were 3.4 µM, 1.02 µM and 3.24 µM, respectively.
The like results for `C=CC(=O)Nc1cccc(Nc2nc(Nc3ccccc3C)nc3ccc(Cl)cc23)c1` were, in that order, 7.31 µM, 6.58 µM and 8.26 µM.
